Publication PMC9982591, “Inflammation‐Controlled Anti‐Inflammatory Hydrogels” (Advanced Science, 2022)

Columns and labels:
calcineurin = calcineurin (Homo sapiens, UniProt P62937+P63098+Q08209)
extracellular CypA = details: cited from earlier work
cyclophilin A (CypA) = cyclophilin A (CypA) (Homo sapiens, UniProt P62937); assay: PPIase inhibition; format: biochemical; details: PPIase assay, Table S2
Description: From the activity against the inhibitor concentrations, the IC50 and the K i value were determined with nonlinear curve fitting according to the models of Morrison^[ [41] ^] and Murphy.^[ [42] ^]

[1] = target: T1, human neutrophil elastase (Homo sapiens, UniProt P08246); assay: Enzymatic cleavage of elastase-responsive peptide and PEG-AAPV conjugate; format: biochemical; details: 7 mmol/L AAPV peptide, 20 nmol/L human neutrophil elastase, PBS pH 7.4, 37 °C, analytical HPLC
T1 construct: purchased Merck/Calbiochem
T1 sequence (P08246 30-267): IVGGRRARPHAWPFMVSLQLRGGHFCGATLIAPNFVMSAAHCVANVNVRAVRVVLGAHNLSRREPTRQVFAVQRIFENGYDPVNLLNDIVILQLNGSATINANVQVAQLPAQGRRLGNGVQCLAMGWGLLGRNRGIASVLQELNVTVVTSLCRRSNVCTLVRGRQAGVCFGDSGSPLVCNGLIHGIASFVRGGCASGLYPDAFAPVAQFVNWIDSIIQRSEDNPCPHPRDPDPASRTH
Description: starPEG-peptide conjugate with full starPEG arm saturation by the leukocyte elastas e responsive AAPV peptide was added to the reaction solution in 4-fold excess, to finally result […]
The reaction mixture was directly used for hydrogel format ion.
S1.3. Supplement –Basic analysis
Enzymatic clea vage of el astase- responsive peptide and PEG-AAPV conjug ate To analyze leuko cyte elastase mediated hydrolysis of the responsive peptide and the corresponding conjugate, 7 mmol L -1 AAPV peptide or 0.7 mmol L -1 starPEG-AAPV conjugate w er e incub ated with 20 nmol L -1 human neutrophil el astase in PBS, pH 7.4 at 37°C.
The enzymatic reaction was evaluated after indicated timepoints by analytical HPLC, followed by integral anal ysis of the peak signals for educt and cleavage products.
Inhibition of leukocyte el astaseby heparin
To evaluate the influence of the hydrogel component heparin on the activity of leukocyte elastase, samples with heparin sodium salt concentrations of 0.001- 1 000µg mL -1 were prepared in 50mmol L -1 Tris-HCl pH 7.4 supplemented with 100mmol L -1 NaCl and 0.1% BSA and pre-incubated with 10nmol L -1 leukocyte elastase for 5 min. […]

complement system = assay: Complement activation in whole blood with zymosan (C5a ELISA); format: cell-based, human; details: zymosan 10 µg/mL, 30 min, 37 °C, 4W9A alone and conjugated to cleavage fragment (Figure S4, 10 µmol/L, n = 3)
Description: Figure 3 Cleavage of inflammation‐responsive hydrogels in an in vitro inflammation model and assessment of the anti‐inflammatory effects of the released drugs. A) For hydrogel cleavage, isolated polymorphonuclear granulocytes (PMN) are activated with complement‐opsonized zymosan (OPZ) in cell culture media and incubated with the hydrogel over 2 h at 37 °C. The cell‐free supernatant containing the released bioactive is used to test the anti‐inflammatory effect in the corresponding system. B) 4W9A: Measurement of complement activation in whole blood activated with zymosan. C) PMX53: Activation of isolated PMN by zymosan activated serum, measured as CD11b expression (*P < 0.05, **P < 0.01 in t‐test).
The amount of Atto488 released from the hydrogel as a model drug was determined by fluorescence measurement at λ ex. = 485 nm/λ em. = 535 nm against an Atto488 standard. […] Cell activation was determined by flow cytometry using CD11b‐VioBlue staining (Biolegend) for isolated granulocytes and additionally CD14‐APC and CD41a‐FITC (both BD Biosciences, New Jersey, USA) for whole blood samples. Leukocyte elastase and C5a concentrations were determined using the commercial ELISA kits Hycult human elastase ELISA (Hycult Biotech, Uden, Netherlands) and C5a micro ELISA (DRG, Marburg, Germany) according to the manufactures instructions.

[2] = target: C5a receptor (C5aR1 or CD88); details: C5a receptor inhibitor; read-out: IC50 of PMX53; cited from earlier work
Source text: PMX53 is derived from the C‐terminus of the C5a fragment. Therefore, N‐terminal sequence extension by a glycine spacer and a cysteine group appeared possible without loss of activity.^[ [19], [30] ^] (Table S1, Supporting Information). The obtained peptide was linked to the elastase‐responsive hydrogel platform as an anti‐inflammatory feedback control system. The low IC50 concentration (IC50 = 20 nmol L^−1[ [19] ^]) allowed for a low functionalization degree at the hydrogel of only 2% of the starPEG‐AAPV‐arms.

leukocyte = test system: leukocyte; parameters: method as in PMID 10354404; details: specific for C5aR1; cited from earlier work
human leukocyte elastase = assay: Inhibition of leukocyte elastase by heparin; format: biochemical; details: U-shaped, heparin 0.01–5 µg/mL (≈0.002–1 U/mL); 10 nmol/L elastase, 250 µmol/L MeOSuc-Ala-Ala-Pro-Val-pNA, Tris-HCl pH 7.4, 100 mmol/L NaCl, 0.1% BSA, 5 min pre-incubation, 37 °C, 30 min, 405 nm; normalized to control without heparin; mean ± SD of n=2
Description: Figure S2: Inhibition of leukocyte elastase by heparin. A concentration of 10 nmol L-1 human leukocyte elastase was used to cleave 250 µmol L -1 chromogenic substrate in the presence of different heparin concentrations. The substrate cleavage was monitored photometrically at a wavelength of 405nm by the release of p- nitroaniline from the chromogenic substrate methoxysuccinyl-Ala-Al a-Pro-V al-pNA over 30 min. Values were normalized to a cont rol sample without heparin; mean ± SD of n=2.
(1 picture or pasted object on this page, not shown here) […]
The enzymatic reaction was evaluated after indicated timepoints by analytical HPLC, followed by integral anal ysis of the peak signals for educt and cleavage products. […]
To evaluate the influence of the hydrogel component heparin on the activity of leukocyte elastase, samples with heparin sodium salt concentrations of 0.001- 1 000µg mL -1 were prepared in 50mmol L -1 Tris-HCl pH 7.4 supplemented with 100mmol L -1 NaCl and 0.1% BSA and pre-incubated with 10nmol L -1 leukocyte elastase for 5 min. Subsequently, the cleavage of 250 µmol L-1 chromogenic substrate MeOSuc-Ala-Ala-Pro-V al-pNA by leukocyte elastase in the presence of the different heparin concentrations was measured as reaction kinetic at 37°C for 30min using the Spark TM 10M multimode microplate reader (Tecan) at 405 nm and c ompared to a cont rol without heparin.

elastase = details: cited from earlier work
Source text: (§1) The heparin component of the hydrogel matrix provides favorable additional anti‐inflammatory properties and interacts with the cleaving enzyme in different ways: Elastase has an anion binding site, which mediates binding to the DNA in neutrophil extracellular traps (NETs), to heparin and heparan sulfates, and also leads to accumulation at the hydrogel.^[ [21] ^] […] Additionally, direct inhibition of elastase acti ...

α1‐antitrypsin = details: cited from earlier work
Source text: as §1

calcineurin, sequence (P63098 whole entry, other chains not shown): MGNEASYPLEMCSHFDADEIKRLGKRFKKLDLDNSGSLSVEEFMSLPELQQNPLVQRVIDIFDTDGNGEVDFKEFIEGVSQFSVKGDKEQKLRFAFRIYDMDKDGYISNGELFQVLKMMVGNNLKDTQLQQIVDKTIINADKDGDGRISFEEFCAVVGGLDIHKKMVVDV
calcineurin, sequence (P62937 whole entry, other chains not shown): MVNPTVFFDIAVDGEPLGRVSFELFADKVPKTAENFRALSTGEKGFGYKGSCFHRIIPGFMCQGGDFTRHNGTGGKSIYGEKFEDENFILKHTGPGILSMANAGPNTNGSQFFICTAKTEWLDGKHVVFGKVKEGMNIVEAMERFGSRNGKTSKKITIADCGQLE
cyclophilin A (CypA), sequence (P62937 whole entry): as the sequence (P62937 whole entry, other chains not shown) above

**Q.** With CC[C@@H]1NC(=O)[C@H]([C@H](O)[C@H](C)Cc2nc3cc(C(=O)O)ccc3[nH]2)N(C)C(=O)[C@H](C(C)C)N(C)C(=O)[C@H](CC(C)C)N(C)C(=O)[C@H](CC(C)C)N(C)C(=O)[C@@H](C)NC(=O)[C@H](C)NC(=O)[C@H](CC(C)C)N(C)C(=O)[C@H](C(C)C)NC(=O)[C@H](CC(C)C)N(C)C(=O)CN(C)C1=O [MM284] as the compound, how does the “calcineurin: concentration up to which no inhibition was found” value (calcineurin) read?
**A.** The value was no less than 15 µmol/L.

**Q.** And the “extracellular CypA inhibition / immunosuppression” value (extracellular CypA)?
**A.** Its value is “inhibits extracellular CypA, providing anti‐inflammatory without immunosuppressive activity”.

**Q.** For CC[C@@H]1NC(=O)[C@H]([C@H](O)[C@H](C)Cc2nc3cc(C(=O)N[C@H](CCC(=O)O)C(=O)N[C@H](CCC(=O)O)C(=O)N[C@H](CCC(=O)O)C(=O)N[C@H](CCC(=O)O)C(=O)N[C@H](CCC(=O)O)C(=O)N[C@H](CCC(=O)O)C(=O)NCC(=O)N[C@@H](CCCCN)C(=O)NCC(=O)N[C@@H](C)C(=O)N[C@@H](C)C(=O)N4CCC[C@H]4C(=O)N[C@H](C(=O)NCC(=O)NCC(=O)N[C@@H](CS)C(N)=O)C(C)C)ccc3[nH]2)N(C)C(=O)[C@H](C(C)C)N(C)C(=O)[C@H](CC(C)C)N(C)C(=O)[C@H](CC(C)C)N(C)C(=O)[C@@H](C)NC(=O)[C@H](C)NC(=O)[C@H](CC(C)C)N(C)C(=O)[C@H](C(C)C)NC(=O)[C@H](CC(C)C)N(C)C(=O)CN(C)C1=O [MM623], which “CypA inhibition compared with MM284” value (cyclophilin A (CypA)) is on record?
**A.** The value was “comparable to MM284”.

**Q.** What about the “calcineurin: concentration up to which no inhibition was found” value (calcineurin) of the same compound?
**A.** The value was no less than 20 µmol/L.

**Q.** For H2N-GWGAAPV-↑-RGGCG-CONH2, which “cleavage rate of the free peptide by elastase” value [1] is on record?
**A.** Its value is 0.36 s⁻¹.

**Q.** For “Mal-l[CVWQDWGAHRC]-T-CONH2 (disulfide) [4W9A]”, which “inhibitor concentration that should be exceeded for complement inhibition” value (complement system) is on record?
**A.** The value was greater than 2 µmol/L.

**Q.** What does the source list for PMX53?
**A.** IC50 [2]: 20 nM; effect on leukocyte stimulation by cytokines, leukotriene B4, endotoxins, or formylated peptides (leukocyte): has no effect on leukocyte stimulation by cytokines, leukotriene B4, endotoxins, or formylated peptides

**Q.** For heparin, which “suppression of elastase activity to (residual activity)” value (human leukocyte elastase) is on record?
**A.** Its value is “about 50%”.

**Q.** What about the “elastase activity inhibition by heparin binding” value (elastase) of the same compound?
**A.** The value was “direct inhibition of elastase activity by heparin binding has been reported”.

**Q.** And the α1-antitrypsin activity (α1‐antitrypsin)?
**A.** The α1-antitrypsin activity was “decreases the activity of α1‐antitrypsin”.
